Assay results: patent US20260183369A1, “CHEMERIN-CONTAINING FORMULATION FOR TREATING DRY EYE DISEASE” (OKYO Pharma Limited, priority 2022, published 2026)
Read-outs that look alike come from different tables or passages of the source. Square brackets hold non-standard residues; d marks the D form. Peptide text beside a SMILES is read from it. * marks the point of attachment. PEG8 = NCCOCCOCCOCCOCCOCCOCCOCCOCCC(=O)O; Palmitoyl = CCCCCCCCCCCCCCCC(=O)*; Tic = O=C(O)[C@@H]1Cc2ccccc2CN1

Test: solubility and pH stability of OK-101 in sodium phosphate buffer
Type: physicochemical
Details: read-out: concentration of OK-101 observed (solubility)
Experimental: The solubility and pH stability of OK-101 at a target concentration of 0.05% w/v, was tested in either 50 mM or 100 mM sodium phosphate buffer. For each concentration of sodium phosphate buffer, the solubility and pH stability were determined in three separate buffer batches, each with a different starting pH.

solubility (three batches of 50 mM sodium phosphate buffer): > 25 mg/mL | solubility (three batches of 100 mM sodium phosphate buffer): > 30 mg/mL
Structure (SMILES): CCCCCCCCCCCCCCCC(=O)NCCOCCOCCOCCOCCOCCOCCOCCOCCC(=O)NCC(=O)NCC(=O)N[C@H](Cc1ccc(O)cc1)C(=O)N[C@@H](Cc1ccccc1)C(=O)N[C@@H](CC(C)C)C(=O)N1CCC[C@H]1C(=O)N[C@H](CO)C(=O)N[C@@H](CCC(N)=O)C(=O)N[C@@H](Cc1ccccc1)C(=O)N[C@H](C)C(=O)N1Cc2ccccc2C[C@H]1C(=O)N[C@@H](CO)C(=O)O [OK-101] ({Palmitoyl-PEG8}-GG[dY]FLP[dS]QF[dA][Tic]S-OH)
